The text below walks through data of patent publication US20260200919A1, “SUBSTITUTED AMINOPYRIDINE COMPOUNDS AND METHODS OF TREATING DISEASE USING SAME” (Atavistik Bio, Inc., priority 2023, published 2026).

Some results are limits rather than exact numbers.

Assay [1] concerns the target T1, human recombinant kinase full-length AKT1 E17K (Homo sapiens, UniProt P31749, E17K).
T1 construct: Purified human recombinant kinase full-length AKT1 E17K was expressed in insect cells; made in house; host or cells: insect cells
In words: AKT1 E17K kinase assay (TR-FRET, Lance). The format is biochemical. The conditions noted are these: 0.6 nM AKT1 E17K, 50 nM Ulight-CREBtide, either 50 μM ATP or 2 mM ATP (not specified which), 60 min at RT. A digest of the protocol:
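Full-length human AKT1 E17K (insect cell-expressed, PDPK1-activated; 0.6 nM) with 50 nM ULight-CREBtide in HEPES pH 7.5 with MgCl2 and DTT. ATP at 50 μM or 2 mM, 1% DMSO, 10-point dose response, 60 min at RT.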
(In general: TR-FRET usually uses a lanthanide donor and a delayed reading to cut background.)

In assay [2] the target is T2, human recombinant kinase full-length wildtype AKT1 (Homo sapiens, UniProt P31749).
T2 construct: Purified human recombinant kinase full-length wildtype AKT1 was expressed in insect cells; made in house; host or cells: insect cells
T2 sequence (P31749 whole entry): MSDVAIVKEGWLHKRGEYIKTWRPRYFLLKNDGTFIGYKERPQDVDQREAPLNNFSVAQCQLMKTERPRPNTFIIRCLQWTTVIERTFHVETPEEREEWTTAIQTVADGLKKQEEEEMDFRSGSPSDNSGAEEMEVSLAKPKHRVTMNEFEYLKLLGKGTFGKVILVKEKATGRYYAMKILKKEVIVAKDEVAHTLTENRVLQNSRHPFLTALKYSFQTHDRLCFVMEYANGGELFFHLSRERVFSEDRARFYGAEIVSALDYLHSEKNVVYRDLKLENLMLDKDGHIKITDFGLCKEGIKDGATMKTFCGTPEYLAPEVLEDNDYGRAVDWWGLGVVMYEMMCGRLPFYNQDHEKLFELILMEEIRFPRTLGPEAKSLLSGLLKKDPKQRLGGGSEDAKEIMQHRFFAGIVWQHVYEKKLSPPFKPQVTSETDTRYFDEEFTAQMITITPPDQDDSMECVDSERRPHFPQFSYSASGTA
In words: AKT1 kinase assay (wildtype, TR-FRET, Lance). It counts as biochemical. The conditions noted are these: 0.6 nM wildtype AKT1, 50 nM Ulight-CREBtide, either 50 μM ATP or 2 mM ATP (not specified which), 60 min at RT. Summed up:
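Insect-cell-expressed AKT1, activated in vitro by PDPK1, was used at 0.6 nM with 50 nM Ulight-CREBtide and 50 μM or 2 mM ATP in 50 mM HEPES pH 7.5, 1% DMSO, over a 10-point dose response.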

T1 sequence (P31749 whole entry E17K): as the sequence (P31749 whole entry) above, with E17K counted along it

As for `Nc1ncccc1-c1nc2ccc(-c3ccccc3)nc2n1-c1ccc(NC(=O)c2cc(F)c(C(=O)O)cc2F)nc1` [Compound 152], the IC50 – broadly, the concentration that inhibits the measured activity by half – in assay [1] is 50 to 200 nM; in assay [2] it was less than 500 nM.

Regarding `Cc1nc(NC(=O)c2ccc(C(=O)O)cc2)ccc1-n1c(-c2cccnc2N)nc2ccc(-c3ccccc3)nc21` [Compound 153], the half-maximal inhibitory concentration (IC50) in assay [1] was less than 50 nM; in assay [2] it was less than 500 nM.

With `Cc1nc(NC(=O)c2ccc(C(=O)O)c(F)c2)ccc1-n1c(-c2cccnc2N)nc2ccc(-c3ccccc3)nc21` [Compound 154], the figures for the IC50 in assay [1] and in assay [2] were less than 50 nM and less than 500 nM, respectively.

Turning to `Cc1cc(C(=O)Nc2ccc(-n3c(-c4cccnc4N)nc4ccc(-c5ccccc5)nc43)c(C)n2)c(C)cc1C(=O)O` [Compound 155], the IC50 is more than 500 nM in assay [1] and less than 500 nM in assay [2].

In the case of `C[C@@H](c1ccc(C(=O)O)cc1F)N1CC(c2ccc(-n3c(-c4cccnc4N)nc4ccc(-c5ccccc5)nc43)cc2)C1` [Compound 159], the values for the IC50 in assay [1] and in assay [2] were 200 to 500 nM and less than 500 nM, respectively.

Turning to `C[C@H](c1ccc(C(=O)O)cc1F)N1CC(c2ccc(-n3c(-c4cccnc4N)nc4ccc(-c5ccccc5)nc43)cc2)C1` [Compound 160], the IC50 in assay [1] is 50 to 200 nM; in assay [2], less than 500 nM.

Turning to `CC(C)[C@H](c1ccc(C(=O)O)cc1)N1CC(c2ccc(-n3c(-c4cccnc4N)nc4ccc(-c5ccccc5)nc43)cc2)C1` [Compound 161], the values for the IC50 in assay [1] and in assay [2] were 200 to 500 nM and less than 500 nM, respectively.

As to `CC(C)[C@@H](c1ccc(C(=O)O)cc1)N1CC(c2ccc(-n3c(-c4cccnc4N)nc4ccc(-c5ccccc5)nc43)cc2)C1` [Compound 162], the IC50 in assay [1] is 200 to 500 nM; in assay [2] it was less than 500 nM.

As to `CC(c1ccc(C(=O)O)c(F)c1)N1CC(c2ccc(-n3c(-c4cccnc4N)nc4ccc(-c5ccccc5)nc43)cc2)C1` (stereo not shown) [Compound 163], the figures for the IC50 in assay [1] and in assay [2] were 50 to 200 nM and less than 500 nM, respectively.

Regarding `C[C@@H](c1ccc(C(=O)O)cc1C(F)(F)F)N1CC(c2ccc(-n3c(-c4cccnc4N)nc4ccc(-c5ccccc5)nc43)cc2)C1` [Compound 164], the values for the IC50 in assay [1] and in assay [2] were more than 500 nM and less than 500 nM, respectively.

Regarding `C[C@H](c1ccc(C(=O)O)cc1C(F)(F)F)N1CC(c2ccc(-n3c(-c4cccnc4N)nc4ccc(-c5ccccc5)nc43)cc2)C1` [Compound 165], the figures for the half-maximal inhibitory concentration (IC50) in assay [1] and in assay [2] were 50 to 200 nM and less than 500 nM, respectively.

As to `CC(c1ccc(C(=O)O)cc1)N1CC(c2ccc(-n3c(-c4cccnc4N)nc4ccc(-c5ccccc5)nc43)cc2F)C1` (stereo not shown) [Compound 166, 4-(1-(3-(4-(2-(2-aminopyridin-3-yl)-5-phenyl-3H-imidazo[4,5-b]pyridin-3-yl)-2-fluorophenyl)azetidin-1-yl)ethyl)benzoic acid], the IC50 was 200 to 500 nM in assay [1] and less than 500 nM in assay [2].

`CC(c1ccc(C(=O)O)cc1)N1CC(c2ccc(-n3c(-c4cccnc4N)nc4ccc(-c5ccccc5)nc43)cn2)C1` (stereo not shown) [Compound 167, 4-(1-(3-(5-(2-(2-aminopyridin-3-yl)-5-phenyl-3H-imidazo[4,5-b]pyridin-3-yl)pyridin-2-yl)azetidin-1-yl)ethyl)benzoic acid]: the figures for the IC50 in assay [1] and in assay [2] were more than 500 nM and less than 500 nM, respectively.

Regarding `Nc1ncccc1-c1nc2ccc(-c3ccccc3)nc2n1-c1ccc(C2CN(Cc3ccc(C(=O)O)cc3)C2)nc1` [Compound 168, 4-[[3-[5-[2-(2-amino-3-pyridyl)-5-phenyl-imidazo[4,5-b]pyridin-3-yl]-2-pyridyl]azetidin-1-yl]methyl]benzoic acid], the IC50 in assay [1] was more than 500 nM; in assay [2] it was less than 500 nM.

As to `CC(c1ccc(C(=O)O)cc1)N1CCC(c2ccc(-n3c(-c4cccnc4N)nc4ccc(-c5ccccc5)nc43)cc2)CC1` (stereo not shown) [Compound 169, 4-(1-(4-(4-(2-(2-aminopyridin-3-yl)-5-phenyl-3H-imidazo[4,5-b]pyridin-3-yl)phenyl)piperidin-1-yl)ethyl)benzoic acid], the results for the IC50 in assay [1] and in assay [2] were 200 to 500 nM and less than 500 nM, respectively.

For `CC(c1ccc(C(=O)O)cc1)N1CCCC(c2ccc(-n3c(-c4cccnc4N)nc4ccc(-c5ccccc5)nc43)cc2)C1` (stereo not shown) [Compound 170, 4-(1-(3-(4-(2-(2-aminopyridin-3-yl)-5-phenyl-3H-imidazo[4,5-b]pyridin-3-yl)phenyl)piperidin-1-yl)ethyl)benzoic acid], the IC50 in assay [1] is more than 500 nM; in assay [2] it was less than 500 nM.

Regarding `CC(c1ccc(C(=O)O)cc1)N1CCC(c2ccc(-n3c(-c4cccnc4N)nc4ccc(-c5ccccc5)nc43)cc2)C1` (stereo not shown) [Compound 171, 4-(1-(3-(4-(2-(2-aminopyridin-3-yl)-5-phenyl-3H-imidazo[4,5-b]pyridin-3-yl)phenyl)pyrrolidin-1-yl)ethyl)benzoic acid], the IC50 in assay [1] is 200 to 500 nM; in assay [2] it was less than 500 nM.

Consider `CC(C)c1ccc2nc(-c3cccnc3N)n(-c3ccc(NC(=O)c4ccc(C(=O)O)cc4)nc3)c2c1` [Compound 172, 4-((5-(2-(2-aminopyridin-3-yl)-6-isopropyl-1H-benzo[d]imidazol-1-yl)pyridin-2-yl)carbamoyl)benzoic acid], for which the IC50 in assay [1] was more than 500 nM; in assay [2], less than 500 nM.

For `CC(C)c1ccc2nc(-c3cccnc3N)n(-c3ccc(C4CN(Cc5ccc(C(=O)O)cc5)C4)cc3)c2n1` [Compound 173, 4-((3-(4-(2-(2-aminopyridin-3-yl)-5-isopropyl-3H-imidazo[4,5-b]pyridin-3-yl)phenyl)azetidin-1-yl)methyl)benzoic acid], the IC50 in assay [1] is more than 500 nM; in assay [2], less than 500 nM.

As for `CC(C)(C)c1ccc2nc(-c3cccnc3N)n(-c3ccc(NC(=O)c4ccc(C(=O)O)cc4)nc3)c2c1` [Compound 174, 4-((5-(2-(2-aminopyridin-3-yl)-6-(tert-butyl)-1H-benzo[d]imidazol-1-yl)pyridin-2-yl)carbamoyl)benzoic acid], the IC50 in assay [1] and in assay [2] was more than 500 nM each time.

Consider `Nc1ncccc1-c1nc2ccc(OC(F)(F)F)cc2n1-c1ccc(NC(=O)c2ccc(C(=O)O)cc2)nc1` [Compound 175, 4-((5-(2-(2-aminopyridin-3-yl)-6-(trifluoromethoxy)-1H-benzo[d]imidazol-1-yl)pyridin-2-yl)carbamoyl)benzoic acid], for which the IC50 in assay [1] and in assay [2] was more than 500 nM in each case.

Take `CC(C)Oc1ccc2nc(-c3cccnc3N)n(-c3ccc(NC(=O)c4ccc(C(=O)O)cc4)nc3)c2c1` [Compound 176, 4-[[5-[2-(2-amino-3-pyridyl)-6-isopropoxy-benzimidazol-1-yl]-2-pyridyl]carbamoyl]benzoic acid]: the IC50 in assay [1] and in assay [2] was more than 500 nM each time.

`Cc1cc(NC(=O)c2ccc(-n3c(-c4cccnc4N)nc4ccc(-c5ccccc5)nc43)cn2)ccc1C(=O)O` [Compound 177, 4-(5-(2-(2-aminopyridin-3-yl)-5-phenyl-3H-imidazo[4,5-b]pyridin-3-yl)picolinamido)-2-methylbenzoic acid]: the concentration for half-maximal inhibition (IC50) in assay [1] was 200 to 500 nM; in assay [2], less than 500 nM.

For the molecule `Cc1cc(C(=O)O)ccc1NC(=O)c1ccc(-n2c(-c3cccnc3N)nc3ccc(-c4ccccc4)nc32)cn1` [Compound 178, 4-(5-(2-(2-aminopyridin-3-yl)-5-phenyl-3H-imidazo[4,5-b]pyridin-3-yl)picolinamido)-3-methylbenzoic acid], the IC50 in assay [1] is more than 500 nM; in assay [2], less than 500 nM.

For the molecule `Nc1ncccc1-c1nc2ccc(-c3ccccc3)nc2n1-c1ccc(C(=O)Nc2ccc(C(=O)O)cc2F)nc1` [Compound 179, 4-(5-(2-(2-aminopyridin-3-yl)-5-phenyl-3H-imidazo[4,5-b]pyridin-3-yl)picolinamido)-3-fluorobenzoic acid], the IC50 in assay [1] is 200 to 500 nM; in assay [2], less than 500 nM.

On to `Nc1ncccc1-c1nc2ccc(-c3ccccc3)nc2n1-c1ccc(C(=O)Nc2ccc(C(=O)O)cc2F)cc1` [Compound 180, 4-(4-(2-(2-aminopyridin-3-yl)-5-phenyl-3H-imidazo[4,5-b]pyridin-3-yl)benzamido)-3-fluorobenzoic acid], for which the figures for the IC50 in assay [1] and in assay [2] were less than 50 nM and less than 500 nM, respectively.

For the molecule `Cc1cc(C(=O)Nc2ccc(-n3c(-c4cccnc4N)nc4ccc(-c5ccccc5)nc43)nc2C)ccc1C(=O)O` [Compound 181, 4-((6-(2-(2-aminopyridin-3-yl)-5-phenyl-3H-imidazo[4,5-b]pyridin-3-yl)-2-methylpyridin-3-yl)carbamoyl)-2-methylbenzoic acid], the IC50 in assay [1] and in assay [2] was more than 500 nM each time.

For the molecule `Cc1nc(NC(=O)c2ccc(C(=O)O)cc2)ccc1-n1c(-c2cccnc2N)nc2ccc(-c3ccccc3)cc21` [Compound 182, 4-((5-(2-(2-aminopyridin-3-yl)-6-phenyl-1H-benzo[d]imidazol-1-yl)-6-methylpyridin-2-yl)carbamoyl)benzoic acid], the IC50 in assay [1] was more than 500 nM; in assay [2], less than 500 nM.

As for `Nc1ncccc1-c1nc2ccc(-c3ccccc3)nc2n1-c1ccc(C2CN(Cc3ccc(C(=O)O)cc3)C2)cc1` [Compound 183, 4-((3-(4-(2-(2-aminopyridin-3-yl)-5-phenyl-3H-imidazo[4,5-b]pyridin-3-yl)phenyl)azetidin-1-yl)methyl)benzoic acid], the IC50 was 50 to 200 nM in assay [1] and less than 500 nM in assay [2].
